Patent publication US9598387B2 (Southern Research Institute, priority 2012, dated 2017)

Assays:
[1] = biological target: human D3 dopamine receptor (Homo sapiens (Human), UniProt P35462); test: Radioligand binding (125I-IABN competition), D3; conditions: for Ki: 125I-IABN competition, HEK cell membranes expressing human D3; for D2/D3 (D3 selectivity ratio, D2 Ki/D3 Ki): calculated D2 Ki/D3 Ki
Experimental: (§1) The affinities of the target compounds were determined using radioligand binding experiments. […] Competition curves were modeled for a single site. Data from competition dose-response curves were analyzed using Tablecurve program (Jandel). IC50 values were converted to equilibrium dissociation constants (Ki values) using the Cheng and Prusoff correction.

[2] = biological target: human D2-long dopamine receptor (Homo sapiens (Human), UniProt P14416); test: Radioligand binding (125I-IABN competition), D2; conditions: HEK cell membranes expressing human D2-long
Experimental: as §1

[3] = biological target: human D2 receptors (Homo sapiens (Human), UniProt P14416); test: D2 Mitogenesis Functional Assay (3H-thymidine uptake, CHOp-D2 cells); type: cell-based
Experimental: (§2) These assays are based on ^3H-thymidine uptake by cells that are proliferating.
CHO cells expressing human D2 receptors (CHOp-D2 cells) were maintained in alpha-MEM with 10% FCS, 0.05% pen-strep, and 200 μg/mL of G418. […] The cells were incubated at 37° C. in alpha-MEM with 10% FCS. After 48-72 hours, the cells were rinsed twice with serum-free alpha-MEM and incubated for 24 hours at 37° C. Serial dilutions of test compounds were made by the Biomek robotics system in serum-free alpha-MEM. In the functional assay for agonism, the medium was removed and replaced with 100 μL of test compound in serum-free alpha-MEM. In the antagonist assay, the serial dilution of the putative antagonist test compound was added in 90 μL (1.1× of final concentration) and 300 nM quinpirole (30 nM final) was added in […]. After another 24-hour incubation at 37° C., 0.25 μCi of [^3H]thymidine in alpha-MEM supplemented with 10% FCS was added to each well and the plates were further incubated for 2 hours at 37° C. The cells were trypsinized by addition of 10× trypsin solution (1% trypsin in calcium-magnesium-free phosphate-buffered saline) and the plates were filtered and counted as usual. Quinpirole was run as an internal control and dopamine was included for comparative purposes. Butaclamol was run as the standard antagonist.

[4] = biological target: D3R (Homo sapiens (Human), UniProt P35462); test: D3 Mitogenesis Functional Assay (3H-thymidine uptake, CHOp-D3 cells); type: cell-based; conditions: for Emax at 10 µM: % maximum stimulation vs quinpirole (100%), read-out: D3 Agonist Emax; for IC50: inhibition of quinpirole (30 nM final) stimulation of mitogenesis, read-out: D3 Antagonist IC50
Experimental: as §2
CHO cells expressing human D3 receptors (CHOp-D3 cells) were maintained in alpha-MEM with 10% fetal bovine serum (FBS, Atlas Biologicals), 0.05% pen-strep, and 200 μg/ml of G418. […] The cells are incubated at 37° C. in alpha-MEM with 10% FBS. After 48-72 hours, the cells are rinsed twice with serum-free alpha-MEM and incubated for 24 hours at 37° C. Serial dilutions of test compounds were made by the Biomek robotics system in serum-free alpha-MEM. In the functional assay for agonism, the medium is removed and replaced with 100 μL of test compound in serum-free alpha-MEM. In the antagonist assay, the serial dilution of the putative antagonist test compound was added in 90 μL (1.1× of final concentration) and 300 nM quinpirole (30 nM final) was added in 10 uL. After another 16-hour incubation at 37° C., 0.25 μCi of [^3H]thymidine in alpha-MEM supplemented with 10% FBS was added to each well and the plates were further incubated for 2 hours at 37° C. The cells were trypsinized by addition of 10× trypsin solution (1% trypsin in calcium-magnesium-free phosphate-buffered saline) and the plates were filtered and counted as usual. Quinpirole was run as an internal control and dopamine was included for comparative purposes. Butaclamol was run as the standard antagonist. Data were analyzed using GraphPAD Prism and agonist potency was expressed as EC50 values or % stimulation and antagonist potency was expressed as IC50 values. In these assays, based on the % maximum stimulation as compared to the standard agonist quinpirole (100%) the compounds were classified into following categories: ≧90% full agonist; 70-90% partial to full agonist; <70% partial agonist; 0-20% potential antagonist.

Chain of human D2-long dopamine receptor (P14416 whole entry): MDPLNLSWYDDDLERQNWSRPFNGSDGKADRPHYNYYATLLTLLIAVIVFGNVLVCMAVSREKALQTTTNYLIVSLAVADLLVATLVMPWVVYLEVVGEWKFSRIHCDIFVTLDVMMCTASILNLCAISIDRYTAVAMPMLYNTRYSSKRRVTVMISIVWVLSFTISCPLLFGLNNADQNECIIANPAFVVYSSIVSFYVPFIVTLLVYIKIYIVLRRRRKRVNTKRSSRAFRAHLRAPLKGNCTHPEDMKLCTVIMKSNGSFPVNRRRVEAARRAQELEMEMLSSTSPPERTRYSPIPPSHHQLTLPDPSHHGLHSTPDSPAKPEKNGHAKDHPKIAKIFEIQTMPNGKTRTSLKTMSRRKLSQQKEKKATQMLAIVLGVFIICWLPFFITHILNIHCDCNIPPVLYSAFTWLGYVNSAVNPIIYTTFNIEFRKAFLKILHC
Chain of human D3 dopamine receptor (P35462 whole entry): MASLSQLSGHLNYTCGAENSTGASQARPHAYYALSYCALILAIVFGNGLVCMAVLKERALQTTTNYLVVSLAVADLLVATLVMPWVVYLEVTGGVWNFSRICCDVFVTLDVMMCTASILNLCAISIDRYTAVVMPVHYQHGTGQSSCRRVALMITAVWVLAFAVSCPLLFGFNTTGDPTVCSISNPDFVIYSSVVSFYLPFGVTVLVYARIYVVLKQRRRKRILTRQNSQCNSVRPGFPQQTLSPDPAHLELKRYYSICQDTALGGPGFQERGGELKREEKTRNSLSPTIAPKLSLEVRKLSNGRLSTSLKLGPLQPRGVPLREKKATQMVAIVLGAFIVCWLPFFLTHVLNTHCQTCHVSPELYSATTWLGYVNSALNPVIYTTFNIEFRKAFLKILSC
Chain of D3R (P35462 whole entry): as above
Chain of human D2 receptors (P14416 whole entry): as the sequence (P14416 whole entry) above

| Ki [1] | D2/D3 (D3 selectivity ratio, D2 Ki/D3 Ki) [1] | Ki [2] | Emax at 10 µM ([3]; at 10 μM, % maximum stimulation vs quinpirole (100%), read-out: D2 Agonist Emax) | IC50 ([3]; inhibition of quinpirole (30 nM final) stimulation of mitogenesis, read-out: D2 Antagonist IC50) | Emax at 10 µM [4] | IC50 [4] | D3 Antagonist Imax ([4]; inhibition of quinpirole stimulation of mitogenesis) | SMILES |
| --- | --- | --- | --- | --- | --- | --- | --- | --- |
| 11.8 ± 1.1 nM | 37 | 436 ± 43.4 nM | < 1% | 205 ± 48 nM | 14% | 51 ± 21 nM |  | CC(C)(C)c1nc(N2CCN(CCCCNC(=O)c3cn4cccnc4n3)CC2)cc(C(F)(F)F)n1 [Compound 114, N-(4-(4-(2-(tert-Butyl)-6-(trifluoromethyl)pyrimidin-4-yl)piperazin-1-yl)butyl)imidazo[1,2-a]pyrimidine-2-carboxamide] |
| 20.5 ± 3.5 nM | 28 | 572 nM |  |  | < 20% | 120 ± 22 nM | 97.2% | O=C(NCCCCN1CCN(c2ccnc3ccccc23)CC1)c1cn2ccccc2n1 [Compound 117, N-(4-(4-(Quinolin-4-yl)piperazin-1-yl)butyl)imidazo[1,2-a]pyridine-2-carboxamide] |
| 98.7 ± 24.3 nM |  | 4980 ± 843 nM |  |  |  |  |  | O=C(NCCCCN1CCN(c2ccnc3cc(C(F)(F)F)ccc23)CC1)c1cn2ccccc2n1 [Compound 124, N-(4-(4-(7-(Trifluoromethyl)quinolin-4-yl)piperazin-1-yl)butyl)imidazo[1,2-a]pyridine-2-carboxamide] |
| 78.2 ± 19.2 nM |  | 1450 ± 275 nM |  |  |  |  |  | CC(C)(C)c1nc(N2CCN(CCCCNC(=O)c3cn4ccccc4n3)CC2)c2ccccc2n1 [Compound 123, N-(4-(4-(2-(tert-Butyl)quinazolin-4-yl)piperazin-1-yl)butyl)imidazo[1,2-a]pyridine-2-carboxamide] |
| 668 ± 122 nM | 16 | 10500 ± 2240 nM |  |  |  |  |  | Cc1nc(N2CCN(CCCCNC(=O)N3CCn4c(C)nnc4C3)CC2)cc(C(C)(C)C)n1 [Compound 88, N-(4-(4-(6-(tert-Butyl)-2-methylpyrimidin-4-yl)piperazin-1-yl)butyl)-3-methyl-5,6-dihydro-[1,2,4]triazolo[4,3-a]pyrazine-7(8H)-carboxamide] |
| 35.2 ± 8.2 nM | 20 | 713 ± 78.3 nM |  |  |  |  |  | CC(C)(C)c1nc(N2CCN(CCCCNC(=O)N3CCC(n4c(=O)[nH]c5ccccc54)CC3)CC2)cc(C(F)(F)F)n1 [Compound 53, N-(4-(4-(2-(tert-Butyl)-6-(trifluoromethyl)pyrimidin-4-yl)piperazin-1-yl)butyl)-4-(2-oxo-2,3-dihydro-1H-benzo[d]imidazol-1-yl)piperidine-1-carboxamide] |
| 16.6 ± 2.2 nM | 23 | 385 ± 58.5 nM |  |  |  |  |  | CC(C)(C)c1nc(N2CCN(CCCCNC(=O)N3CCN(c4ccccc4C#N)CC3)CC2)cc(C(F)(F)F)n1 [Compound 25, N-(4-(4-(2-(tert-Butyl)-6-(trifluoromethyl)pyrimidin-4-yl)piperazin-1-yl)butyl)-4-(2-cyanophenyl)piperazine-1-carboxamide] |
| 130 ± 13 nM | 8 | 990 ± 192 nM |  |  |  |  |  | CC(C)(C)c1nc(N2CCN(CCCCNC(=O)N3CCN(C(c4ccccc4)c4ccc(Cl)cc4)CC3)CC2)cc(C(F)(F)F)n1 (centres unmarked) [Compound 73, N-(4-(4-(2-(tert-Butyl)-6-(trifluoromethyl)pyrimidin-4-yl)piperazin-1-yl)butyl)-4-((4-chlorophenyl)(phenyl)methyl)piperazine-1-carboxamide] |
| 112 ± 19.1 nM | 14 | 1550 ± 349 nM |  |  |  |  |  | O=C(NCCCCN1CCN(c2ccnc3cc(C(F)(F)F)ccc23)CC1)N1CCN(c2ccccc2)CC1 [Compound 83, 4-Phenyl-N-(4-(4-(7-(trifluoromethyl)quinolin-4-yl)piperazin-1-yl)butyl)piperazine-1-carboxamide] |
| 66.8 ± 16.3 nM | 9 | 585 ± 72.7 nM |  |  |  |  |  | CC(C)(C)c1nc(N2CCN(CCCCNC(=O)N3CCN(CC=Cc4ccccc4)CC3)CC2)cc(C(F)(F)F)n1 [Compound 74, N-(4-(4-(2-(tert-Butyl)-6-(trifluoromethyl)pyrimidin-4-yl)piperazin-1-yl)butyl)-4-cinnamylpiperazine-1-carboxamide] |
| 44.1 ± 8.1 nM | 29 | 1290 ± 248 nM |  |  |  |  |  | CC(C)(C)c1nc(N2CCN(CCCCNC(=O)N3CCC(Oc4ccccc4)CC3)CC2)cc(C(F)(F)F)n1 [Compound 51, N-(4-(4-(2-(tert-Butyl)-6-(trifluoromethyl)pyrimidin-4-yl)piperazin-1-yl)butyl)-4-phenoxypiperidine-1-carboxamide] |
| 13.8 ± 2.4 nM | 13 | 184 ± 46.6 nM |  |  |  |  |  | CC(C)(C)c1nc(N2CCN(CCCCNC(=O)N3CCN(CC4CC4)CC3)CC2)cc(C(F)(F)F)n1 [Compound 68, N-(4-(4-(2-(tert-Butyl)-6-(trifluoromethyl)pyrimidin-4-yl)piperazin-1-yl)butyl)-4-(cyclopropylmethyl)piperazine-1-carboxamide] |
| 51.8 ± 11.4 nM | 16 | 834 ± 133 nM |  |  |  |  |  | CC(C)(C)c1nc(N2CCN(CCCCNC(=O)N3CCC(O)(c4ccc(Cl)cc4)CC3)CC2)cc(C(F)(F)F)n1 [Compound 79, N-(4-(4-(2-(tert-Butyl)-6-(trifluoromethyl)pyrimidin-4-yl)piperazin-1-yl)butyl)-4-(4-chlorophenyl)-4-hydroxypiperidine-1-carboxamide] |
| 166 ± 4.1 nM | 8 | 1350 ± 241 nM |  |  |  |  |  | COc1ccc2[nH]c3c(c2c1)CN(C(=O)NCCCCN1CCN(c2cc(C(F)(F)F)nc(C(C)(C)C)n2)CC1)CC3 [Compound 92, N-(4-(4-(2-(tert-Butyl)-6-(trifluoromethyl)pyrimidin-4-yl)piperazin-1-yl)butyl)-8-methoxy-3,4-dihydro-1H-pyrido[4,3-b]indole-2(5H)-carboxamide] |
| 15 ± 3.1 nM | 68 | 1020 ± 75.6 nM |  |  |  |  |  | CC(C)(C)c1nc(N2CCN(CCCCNC(=O)N3CCN(c4ccccc4-c4ccccc4)CC3)CC2)cc(C(F)(F)F)n1 [Compound 43, 4-([1,1′-Biphenyl]-2-yl)-N-(4-(4-(2-(tert-butyl)-6-(trifluoromethyl)pyrimidin-4-yl)piperazin-1-yl)butyl)piperazine-1-carboxamide] |
